Assay results taken from ChEMBL document CHEMBL1201862, “PubChem BioAssay data set” (2004).
Each block holds one compound with its values, some of them ahead of it. The source made the active and inactive calls.

Experiments:
[1] = biological target: Induced myeloid leukemia cell differentiation protein Mcl-1 (Homo sapiens, UniProt Q07820); assay type: functional
[2] = biological target: T1, High affinity choline transporter 1 (Homo sapiens, UniProt Q9GZV3); assay: human choline transporter blockers, potency – cell-based, 5-point CRC, membrane potential dye, dose response (AID 504840); assay type: functional
T1 sequence (Q9GZV3 whole entry): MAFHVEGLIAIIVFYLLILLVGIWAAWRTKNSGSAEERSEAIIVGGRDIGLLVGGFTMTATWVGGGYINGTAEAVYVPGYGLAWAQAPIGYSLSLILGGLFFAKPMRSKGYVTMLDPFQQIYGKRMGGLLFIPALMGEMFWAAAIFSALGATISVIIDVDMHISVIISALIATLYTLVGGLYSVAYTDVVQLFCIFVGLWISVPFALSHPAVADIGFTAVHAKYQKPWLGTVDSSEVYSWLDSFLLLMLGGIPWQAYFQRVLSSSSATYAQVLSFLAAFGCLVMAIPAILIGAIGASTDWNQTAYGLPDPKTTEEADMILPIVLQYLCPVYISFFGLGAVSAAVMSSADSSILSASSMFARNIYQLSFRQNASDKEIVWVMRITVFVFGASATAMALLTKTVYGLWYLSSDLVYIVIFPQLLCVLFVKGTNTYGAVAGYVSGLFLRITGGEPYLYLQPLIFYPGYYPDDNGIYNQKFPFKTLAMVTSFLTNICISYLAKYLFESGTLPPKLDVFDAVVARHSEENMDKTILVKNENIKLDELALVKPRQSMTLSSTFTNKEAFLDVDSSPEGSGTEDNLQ

[3] = biological target: T2, Rac GTPase-activating protein 1 (Homo sapiens, UniProt Q9H0H5); assay: blockers of MgcRacGAP-driven Rac1 GTP hydrolysis – biochemical, ADP Hunter fluorescence, primary and confirmatory, confirmation (AID 624330); assay type: functional
T2 sequence (Q9H0H5 whole entry): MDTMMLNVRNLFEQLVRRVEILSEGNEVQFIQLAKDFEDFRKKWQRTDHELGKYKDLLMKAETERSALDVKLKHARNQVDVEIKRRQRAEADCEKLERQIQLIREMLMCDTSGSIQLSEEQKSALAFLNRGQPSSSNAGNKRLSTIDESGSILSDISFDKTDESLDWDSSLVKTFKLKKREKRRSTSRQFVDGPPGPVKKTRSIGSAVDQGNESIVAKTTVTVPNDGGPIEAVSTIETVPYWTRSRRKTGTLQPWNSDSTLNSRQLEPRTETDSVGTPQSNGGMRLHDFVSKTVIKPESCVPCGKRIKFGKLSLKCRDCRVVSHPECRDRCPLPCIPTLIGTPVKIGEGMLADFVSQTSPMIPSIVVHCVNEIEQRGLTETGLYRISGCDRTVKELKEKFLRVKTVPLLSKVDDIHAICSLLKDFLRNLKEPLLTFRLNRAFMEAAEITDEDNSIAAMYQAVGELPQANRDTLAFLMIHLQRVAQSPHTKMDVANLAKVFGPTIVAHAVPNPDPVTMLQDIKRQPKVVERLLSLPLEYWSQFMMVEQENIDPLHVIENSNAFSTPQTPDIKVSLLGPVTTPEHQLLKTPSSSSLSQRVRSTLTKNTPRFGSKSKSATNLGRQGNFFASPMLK

[4] = biological target: T3, Short transient receptor potential channel 4 (Mus musculus, UniProt Q9QUQ5); assay: block of DAMGO-driven TRPC4 calcium entry – cell-based, HEK293 TRPC4/mu-opioid, Fluo-4 calcium, dose response (AID 434942); assay type: functional;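 further: potency of inhibitors blocking the TRPC4 calcium response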
T3 sequence (Q9QUQ5 whole entry): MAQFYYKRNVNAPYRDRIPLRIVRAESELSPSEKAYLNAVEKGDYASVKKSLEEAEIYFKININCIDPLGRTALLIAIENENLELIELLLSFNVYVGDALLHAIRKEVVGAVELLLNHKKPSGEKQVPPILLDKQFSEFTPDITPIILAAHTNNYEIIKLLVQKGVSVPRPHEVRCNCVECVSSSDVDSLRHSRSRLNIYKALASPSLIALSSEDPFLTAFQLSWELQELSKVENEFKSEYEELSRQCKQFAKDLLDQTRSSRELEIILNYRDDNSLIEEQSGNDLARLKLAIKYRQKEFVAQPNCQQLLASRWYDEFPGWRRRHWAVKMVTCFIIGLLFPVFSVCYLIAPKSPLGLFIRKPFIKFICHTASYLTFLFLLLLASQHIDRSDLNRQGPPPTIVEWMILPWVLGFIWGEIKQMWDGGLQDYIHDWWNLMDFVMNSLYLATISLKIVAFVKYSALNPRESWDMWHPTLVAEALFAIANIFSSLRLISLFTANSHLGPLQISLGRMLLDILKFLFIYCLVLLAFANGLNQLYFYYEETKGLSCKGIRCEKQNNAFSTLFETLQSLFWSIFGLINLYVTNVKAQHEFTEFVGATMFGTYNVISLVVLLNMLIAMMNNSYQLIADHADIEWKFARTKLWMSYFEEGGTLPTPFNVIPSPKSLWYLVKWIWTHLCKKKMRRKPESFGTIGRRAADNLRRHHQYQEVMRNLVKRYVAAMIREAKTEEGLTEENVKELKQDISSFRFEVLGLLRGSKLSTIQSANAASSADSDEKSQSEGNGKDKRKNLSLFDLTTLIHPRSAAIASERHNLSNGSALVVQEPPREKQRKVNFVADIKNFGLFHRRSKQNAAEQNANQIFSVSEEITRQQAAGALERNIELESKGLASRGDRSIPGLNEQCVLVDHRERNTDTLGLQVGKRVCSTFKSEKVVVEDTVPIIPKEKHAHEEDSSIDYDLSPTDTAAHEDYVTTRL

[5] = biological target: T4, Mannose-6-phosphate isomerase (Homo sapiens, UniProt P34949); assay: MPI inhibition at elevated mannose 6-phosphate – biochemical, fluorescence intensity, high mannose 6-phosphate, primary screen (AID 1220)
T4 sequence (P34949 whole entry): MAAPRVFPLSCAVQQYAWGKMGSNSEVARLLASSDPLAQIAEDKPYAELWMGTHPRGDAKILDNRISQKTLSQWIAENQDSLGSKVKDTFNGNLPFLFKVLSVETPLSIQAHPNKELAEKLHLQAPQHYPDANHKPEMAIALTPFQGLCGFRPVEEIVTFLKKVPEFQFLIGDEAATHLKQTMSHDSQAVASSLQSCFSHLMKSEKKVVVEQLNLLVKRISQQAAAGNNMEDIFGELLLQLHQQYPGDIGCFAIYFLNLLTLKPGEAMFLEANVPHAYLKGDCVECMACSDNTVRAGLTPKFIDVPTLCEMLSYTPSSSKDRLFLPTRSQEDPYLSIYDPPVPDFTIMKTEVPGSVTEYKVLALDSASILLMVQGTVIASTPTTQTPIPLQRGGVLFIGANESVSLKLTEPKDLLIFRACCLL

[6] = system: BJ; assay: BJ-TERT-LT-ST fibroblast viability loss – cell-based, RAS-independent, luminescence, dose response (AID 1935); assay type: functional; settings: Homo sapiens;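 further: BJ fibroblasts immortalized with TERT plus LT and ST oncogenes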
[7] = reduction of Shn3 3'UTR-driven luciferase in osteoblasts – cell-based, Clone20 osteoblasts, firefly luciferase, cherry-picked, dose response (AID 624132); assay type: functional;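 further: firefly luciferase luminescence from reporter carrying the Shn3 3'UTR in osteoblasts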
[8] = loss of viability in HepG2 cells – cell-based, CellTiter-Glo, cherry-picked, cytotoxicity control for Shn3 inhibitor project, dose response (AID 624134); assay type: functional
[9] = system: BJ; assay: cells; assay type: functional, cell-based; settings: Homo sapiens
[10] = DRD fibroblast viability loss – cell-based, non-viral oncogenic, luminescence, dose response (AID 1934); assay type: functional; settings: Homo sapiens
[11] = system: BJ; assay: growth inhibition of engineered Ras-driven BJ cells – cell-based, alamar blue fluorescence, cherrypicked samples, dose response (AID 2631); assay type: functional; settings: Homo sapiens;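 further: confirmatory dose-response assay in RAS-dependent BJ fibroblasts engineered with TERT, LT and ST, with cytotoxicity read by fluorescence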
[12] = system: BJ; assay: BJ-TERT fibroblast viability loss – cell-based, RAS-independent, luminescence, dose response (AID 1933); assay type: functional; settings: Homo sapiens
[13] = biological target: T5, Polyadenylate-binding protein 1 (Homo sapiens, UniProt P11940); assay: MLLE binding blockers, Cy5 peptide tracer – biochemical, fluorescence polarization, Cy5-PAM2 peptide, secondary, miRNA deadenylation inhibitor project, dose response (AID 602260); assay type: functional; settings: read-out: IC50_Mean
T5 sequence (P11940 whole entry, the tested form may be a part): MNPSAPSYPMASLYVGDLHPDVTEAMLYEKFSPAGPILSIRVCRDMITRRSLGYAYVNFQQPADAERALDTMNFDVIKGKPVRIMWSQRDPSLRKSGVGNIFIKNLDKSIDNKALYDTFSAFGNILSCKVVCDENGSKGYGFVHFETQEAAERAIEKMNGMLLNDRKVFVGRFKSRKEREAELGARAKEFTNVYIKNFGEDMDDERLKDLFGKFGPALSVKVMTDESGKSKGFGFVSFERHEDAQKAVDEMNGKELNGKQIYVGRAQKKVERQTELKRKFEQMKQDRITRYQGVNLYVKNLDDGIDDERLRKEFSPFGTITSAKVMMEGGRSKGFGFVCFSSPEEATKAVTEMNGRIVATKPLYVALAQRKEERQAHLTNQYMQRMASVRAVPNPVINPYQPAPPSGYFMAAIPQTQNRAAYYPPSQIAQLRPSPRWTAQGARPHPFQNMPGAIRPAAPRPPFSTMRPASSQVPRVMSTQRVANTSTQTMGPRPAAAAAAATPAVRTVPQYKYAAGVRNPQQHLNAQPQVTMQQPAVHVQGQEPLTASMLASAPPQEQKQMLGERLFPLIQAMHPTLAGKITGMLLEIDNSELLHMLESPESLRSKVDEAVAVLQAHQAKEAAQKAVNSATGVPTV

[14] = biological target: T5, Polyadenylate-binding protein 1; assay: MLLE domain peptide-binding blockers, IC50 – biochemical, fluorescence polarization, FITC-PAM2 peptide, dose response (AID 602259); assay type: functional; settings: read-out: IC50_Mean
[15] = Luminescence Cell-Based Dose Confirmation HTS to Identify Inhibitors of Platelet Dense Granule Release. [Related pubchem assays: 1663 (Primary HTS), 1678 (Summary of Project)]; assay type: functional
[16] = biological target: Luciferin 4-monooxygenase (Photinus pyralis, UniProt P08659); assay: inhibition of purified Photinus pyralis luciferase – biochemical, luminescence, dose response (AID 1891)
Sequence of Luciferin 4-monooxygenase (P08659 whole entry, the tested form may be a part): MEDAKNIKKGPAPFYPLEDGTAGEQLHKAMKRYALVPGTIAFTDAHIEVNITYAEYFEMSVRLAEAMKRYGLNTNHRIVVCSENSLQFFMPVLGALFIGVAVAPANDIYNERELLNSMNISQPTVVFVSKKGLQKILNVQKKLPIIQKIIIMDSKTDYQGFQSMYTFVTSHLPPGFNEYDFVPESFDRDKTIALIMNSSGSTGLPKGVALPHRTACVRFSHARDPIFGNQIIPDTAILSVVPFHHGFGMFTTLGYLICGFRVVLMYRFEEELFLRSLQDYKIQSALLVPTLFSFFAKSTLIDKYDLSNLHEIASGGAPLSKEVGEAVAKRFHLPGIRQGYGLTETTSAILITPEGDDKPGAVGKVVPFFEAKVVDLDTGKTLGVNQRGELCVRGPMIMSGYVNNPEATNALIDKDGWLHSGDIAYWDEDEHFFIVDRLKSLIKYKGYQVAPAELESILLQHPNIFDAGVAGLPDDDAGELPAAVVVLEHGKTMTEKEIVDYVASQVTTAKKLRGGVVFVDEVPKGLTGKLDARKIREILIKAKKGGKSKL

[17] = biological target: T6, Carboxy-terminal domain RNA polymerase II polypeptide A small phosphatase 1 (Homo sapiens, UniProt Q9GZU7); assay: CTDSP1 inhibitors, concentration-response, biochemical, absorbance readout, ultra-high-throughput screen actives (AID 540297); assay type: functional
T6 sequence (Q9GZU7 whole entry): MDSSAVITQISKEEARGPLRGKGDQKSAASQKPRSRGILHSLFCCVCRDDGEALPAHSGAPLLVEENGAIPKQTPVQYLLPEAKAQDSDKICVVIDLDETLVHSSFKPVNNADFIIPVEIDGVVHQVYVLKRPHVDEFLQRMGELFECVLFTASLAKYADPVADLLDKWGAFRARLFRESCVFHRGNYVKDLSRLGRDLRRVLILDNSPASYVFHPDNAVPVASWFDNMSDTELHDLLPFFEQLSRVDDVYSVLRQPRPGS

Sequence of Induced myeloid leukemia cell differentiation protein Mcl-1 (Q07820 whole entry): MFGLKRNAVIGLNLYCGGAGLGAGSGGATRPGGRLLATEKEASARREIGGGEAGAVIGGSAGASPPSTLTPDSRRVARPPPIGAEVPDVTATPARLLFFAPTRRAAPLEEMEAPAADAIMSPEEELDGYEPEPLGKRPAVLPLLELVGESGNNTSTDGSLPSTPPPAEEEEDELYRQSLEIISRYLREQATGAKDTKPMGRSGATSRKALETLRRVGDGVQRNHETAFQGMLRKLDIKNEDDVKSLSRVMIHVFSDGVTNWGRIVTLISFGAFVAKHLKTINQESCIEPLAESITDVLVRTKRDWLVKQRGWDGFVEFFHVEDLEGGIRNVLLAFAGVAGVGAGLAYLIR

Structure (SMILES): O=C(c1ccc(COc2ccccc2[N+](=O)[O-])o1)N1CCCCCC1
IC50 [2]: 12.6 µM (active)

Structure (SMILES): Cc1cccc(N2CCN(C(=S)Nc3ccc4nc(N5CCN(C)CC5)cc(C)c4c3)CC2)c1C
EC50 [6]: 1.33 µM (inconclusive) | AC50 [7]: 5.45 µM (active) | AC50 [8]: 6.83 µM (active) | EC50 [9]: 5.6 µM (inconclusive) | EC50 [10]: 2.46 µM (active) | EC50 [11]: 0.585 µM (active) | EC50 [12]: 1.22 µM (inconclusive)

Structure (SMILES): CC(=O)c1c2c3c(c(Br)ccc3n(C)c1=O)C(=O)c1ccccc1-2
IC50 [13]: 45.8 µM (inactive) | IC50 [14]: 37.5 µM (inactive) | EC50 [15]: > 112 µM (not active) | EC50 [16]: > 112 µM (not active)

Structure (SMILES): COc1ccc(N2CCN(C(=O)Cc3ccc(S(=O)(=O)N4CCOCC4)s3)CC2)cc1
IC50 [17]: 6.08 µM (active)

Structure (SMILES): Cc1ccc(NC(=O)/C=C/c2ccco2)nc1
IC50 [17]: 11.7 µM (active)

Structure (SMILES): CC(=O)N1CCc2cc(S(=O)(=O)NC(Cc3ccccc3)C(=O)NC3CCCCCC3)ccc21 (stereo not given)
IC50 [1]: 4.58 µM (not active)

Continued, values first:

IC50 [1]: 3.44 µM (active)
Structure (SMILES): CC(=O)Nc1ccc(-c2csc(NC(=O)C3CC(=O)N(c4ccc5c(c4)OCCO5)C3)n2)cc1 (stereo not given)

IC50 [2]: 11.5 µM (active)
Structure (SMILES): CN(Cc1ccccc1)C(=O)CN1CCN(C(c2ccccc2)c2ccccc2)CC1

IC50 [3]: 100 µM (active) | EC50 [4]: 1.68 µM (active) | IC50 [5]: > 50 µM (not active)
Structure (SMILES): CCOC(=O)C1=C(C)NC(=O)CC1c1cc2c(cc1[N+](=O)[O-])OCO2 (stereo not given)

IC50 [1]: 5.25 µM (active)
Structure (SMILES): CCOC(=O)C1CCCN(c2ccc(NC(=O)c3snc4c(=O)[nH]c(C)nc34)cc2)C1 (stereo not given)

IC50 [17]: 7.72 µM (active)
Structure (SMILES): CCOC(=O)C1=C(C)N=c2s/c(=C\c3ccc(C(=O)O)cc3)c(=O)n2C1c1ccc(OC)cc1OC (stereo not given)

IC50 [13]: > 66 µM (inactive) | IC50 [14]: > 66 µM (inactive)
Structure (SMILES): COc1cccc(-n2c(=S)sc3c(=O)n(-c4ccccc4OC)c(=S)[nH]c32)c1

IC50 [2]: 12.6 µM (active)
Structure (SMILES): CCOC(=O)c1c(NC(=O)CCN2C(=O)c3cccc([N+](=O)[O-])c3C2=O)sc(C(=O)OC(C)C)c1C
